According to patent US20100303936A1, “METHOD OF REDUCING FAT ACCUMULATION AND INDUCING WEIGHT LOSS” (Bionovo, Inc. A Delaware Corporation, priority 2009, published 2010):
“Also recorded” adds a separate entry of the source.

Assay: Ovariectomized mice on high fat diet (HFD): body weight, abdominal fat, uterus and mammary gland
Assay type: in vivo
Method: To test the effects of the two PEs (3 and 39) in animals, 10 week old ovariectomized C57/B16 female mice were placed on a high fat diet (HFD) for 50 days to increase body weight and abdominal fat. After gaining weight, the mice were treated orally for 6 weeks with the two PEs separately while being kept on HFD. The vehicle-treated (placebo) control mice continued to gain weight (9% weight increase) even after treatment. The E2-treated mice, which served as positive controls lost 20.5% of their weight. […] The abdominal fat weight dropped by 48% or 32% in the PE-treated groups (3, 39, respectively) and 80% in E2-treated mice compared to control. The growth of mammary gland (MG) and uteri was assessed by measuring MG and uterine weights and by analyzing MG morphology in whole-mounts. […] FIG. 4.

[1] = ovariectomized mice on HFD, 42 days

Structure (SMILES): C[C@]12CC[C@@H]3c4ccc(O)cc4CC[C@H]3[C@@H]1CC[C@@H]2O [Extract E2, estradiol]
- body weight lost (ovariectomized C57/B16 female mice on HFD, treated 6 weeks): 20.5%
- abdominal fat weight drop compared to control (ovariectomized mice on HFD, 6 weeks treatment): 80%
- mammary gland morphology (ducts, histology / whole-mounts) [1]: elongation and branching of ducts in mammary tissue; also recorded: induced elongation and branching of mammary ducts
- uterine weight (in words) [1]: induced uterine tissue weight gain; also recorded: induced significant weight gain in the uterus
